Laboratory results published in PMC10052977, “α,ω-Diacyl-Substituted Analogues of Natural and Unnatural Polyamines: Identification of Potent Bactericides That Selectively Target Bacterial Membranes” (International Journal of Molecular Sciences, 2023).

Tests used:
[1] = system: Staphylococcus aureus ATCC 25923 or ATCC 29213; assay: MIC, broth dilution (CA-SFM); assay type: cell-based; conditions: Staphylococcus aureus ATCC 25923 or ATCC 29213; mean (n = 3); read-out: MIC S. a
MRSA ATCC 43300 = assay: MIC, CO-ADD broth microdilution; assay type: cell-based, Staphylococcus aureus; conditions: for MIC: Staphylococcus aureus, MRSA ATCC 43300, mean (n = 2), read-out: MIC MRSA
[2] = system: Escherichia coli ATCC 25922; assay: MIC, CO-ADD broth microdilution; assay type: cell-based; conditions: ATCC25922, mean (n = 2)
[3] = system: Pseudomonas aeruginosa PAO1 or ATCC 27853; assay: MIC, broth dilution (CA-SFM); assay type: cell-based; conditions: mean (n = 3)
[4] = system: Klebsiella pneumoniae ATCC700603; assay: MIC, CO-ADD broth microdilution; assay type: cell-based; conditions: mean (n = 2)
[5] = system: Acinetobacter baumannii ATCC19606; assay: MIC, CO-ADD broth microdilution; assay type: cell-based; conditions: mean (n = 2)
[6] = system: Candida albicans ATCC90028; assay: Antifungal MIC, CO-ADD; assay type: cell-based; conditions: mean (n = 2)
Method: (§1) For the antifungal assay, fungi strains were cultured for 3 days on YPD agar at 30 °C. A yeast suspension of 1 × 10^6 to 5 × 10^6 CFU/mL was prepared from five colonies. These stock suspensions were diluted with yeast nitrogen base (YNB) (Becton Dickinson, 233520) broth to a final concentration of 2.5 × 10^3 CFU/mL. […] Plates were covered and incubated at 35 °C for 36 h without shaking. C. albicans MICs were determined by measuring the absorbance at OD530. […] Fluconazole was used as a positive fungal inhibitor standard for C. albicans and C. neoformans. […] Quality control (QC) of the assays was determined by antimicrobial controls and Z’-factor (using positive and negative controls).

[7] = system: Cryptococcus neoformans ATCC208821; assay: Antifungal MIC, CO-ADD; assay type: cell-based; conditions: ATCC208821, Cryptococcus neoformans ATCC208821, mean (n = 2)
Method: as §1

[8] = Cytotoxicity assay (resazurin); assay type: cell-based, human; conditions: human; HEK293 cells; mean (n = 2); highest dose tested 32 μg/mL; read-out: Cytotoxicity (concentration of compound at 50% cytotoxicity, IC50)
human red blood cells = assay: Hemolytic assay; assay type: cell-based; conditions: mean (n = 2)
Method: Human whole blood was washed three times with 3 volumes of 0.9% NaCl and then resuspended in same to a concentration of 0.5 × 10^8 cells/mL, as determined by manual cell count in a Neubauer hemocytometer. The washed cells were then added to the 384-well compound-containing plates for a final volume of 50 μL. After a 10 min shake on a plate shaker, the plates were then incubated for 1 h at 37 °C. After incubation, the plates were centrifuged at 1000× g for 10 min to pellet cells and debris; 25 μL of the supernatant was then transferred to a polystyrene 384-well assay plate. Hemolysis was determined by measuring the supernatant absorbance at […] (OD405). The absorbance was measured using a Tecan M1000 Pro monochromator plate reader. HC10 and HC50 (concentration at 10% and 50% hemolysis, respectively) were calculated by curve fitting the inhibition values vs. log (concentration) using a sigmoidal dose–response function with variable fitting values for top, bottom and slope.

MIC [1]	MIC (MRSA ATCC 43300)	MIC [2]	MIC [3]	MIC [4]	MIC [5]	MIC [6]	MIC [7]	SMILES	activity towards MRSA (MRSA ATCC 43300; MRSA)	IC50 at 20 h [8]	Hemolysis (HC10, concentration at 10% hemolytic activity) (human red blood cells)
3.12 µM	< 0.24 µM	7.58 µM	200 µM	> 30.3 µM	7.6 µM	< 0.24 µM	7.6 µM	O=C(CC(c1ccccc1)(c1ccccc1)c1ccccc1)NCCCNCCCCCCCCNCCCNC(=O)CC(c1ccccc1)(c1ccccc1)c1ccccc1.O=C(O)C(F)(F)F.O=C(O)C(F)(F)F [Compound 18d, N^1,N^8-Bis(3-(3,3,3-triphenylpropanamido)propyl)octane-1,8-diaminium 2,2,2-trifluoroacetate]	–	9.7 µM	3.17 µM
1.56 µM	< 0.24 µM	0.97 µM	50 µM	31.2 µM	7.8 µM	7.79 µM	31.2 µM	O=C(CC(c1ccccc1)(c1ccccc1)c1ccccc1)NCCCNCCCCCCNCCCNC(=O)CC(c1ccccc1)(c1ccccc1)c1ccccc1.O=C(O)C(F)(F)F.O=C(O)C(F)(F)F [Compound 18b, N^1,N^6-Bis(3-(3,3,3-triphenylpropanamido)propyl)hexane-1,6-diaminium 2,2,2-trifluoroacetate]	–	15.7 µM	0.985 µM
24 µM	≤ 0.24 µM	> 30.2 µM	480 µM	> 30.2 µM	> 30.2 µM	> 30.2 µM	30.2 µM	O=C(CCC(=O)NCCC(c1ccccc1)c1ccccc1)NCCCNCCCCCCCNCCCNC(=O)CCC(=O)NCCC(c1ccccc1)c1ccccc1.O=C(O)C(F)(F)F.O=C(O)C(F)(F)F [Compound 16c, N^1,N^7-Bis(3-(4-((3,3-diphenylpropyl)amino)-4-oxobutanamido)propyl)heptane-1,7-diaminium 2,2,2-trifluoroacetate]	–	> 30.2 µM	>30.2 µM

The remaining lines, values behind:

SMILES	MIC [1]	MIC (MRSA ATCC 43300)	MIC [2]	MIC [3]	MIC [4]	MIC [5]	MIC [6]	MIC [7]	activity towards MRSA (MRSA ATCC 43300; MRSA)	IC50 at 20 h [8]	Hemolysis (HC10, concentration at 10% hemolytic activity) (human red blood cells)
O=C(CCc1ccccc1)NCCCNCCCCCCCCCCCCNCCCNC(=O)CCc1ccccc1.O=C(O)C(F)(F)F.O=C(O)C(F)(F)F [Compound 13f, N^1,N^12-Bis(3-(3-phenylpropanamido)propyl)dodecane-1,12-diaminium 2,2,2-trifluoroacetate]	50 µM	19.8 µM	> 39.7 µM	300 µM	> 39.7 µM	> 39.7 µM	> 39.7 µM	> 39.7 µM	weak	> 39.7 µM	>39.7 µM
O=C(CCc1ccccc1)NCCCNCCCCCCNCCCNC(=O)CCc1ccccc1.O=C(O)C(F)(F)F.O=C(O)C(F)(F)F [Compound 13b, N^1,N^6-Bis(3-(3-phenylpropanamido)propyl)hexane-1,6-diaminium 2,2,2-trifluoroacetate]	> 277 µM	> 44.3 µM	> 44.3 µM	> 277 µM	> 44.3 µM	> 44.3 µM	> 44.3 µM	> 44.3 µM	–	> 44.3 µM	>44.3 µM
O=C(CCc1ccccc1)NCCCNCCCCCCCCNCCCNC(=O)CCc1ccccc1.O=C(O)C(F)(F)F.O=C(O)C(F)(F)F [Compound 13d, N^1,N^8-Bis(3-(3-phenylpropanamido)propyl)octane-1,8-diaminium 2,2,2-trifluoroacetate]	> 266 µM	> 42.6 µM	> 42.6 µM	> 266 µM	> 42.6 µM	> 42.6 µM	> 42.6 µM	> 42.6 µM	–	> 42.6 µM	>42.6 µM
